One assay addresses human FPR1 receptors (Homo sapiens (Human), UniProt P21462). Briefly: FPR1 cyclic adenosine monophosphate (cAMP) assay. The following applies: CHO cells overexpressing human FPR1; forskolin 10 μM, IBMX 200 μM; inhibition of cAMP production; read-out: hFPR1 cAMP EC50. The format is cell-based. The protocol:
(§1) FPR2 and FPR1 Cyclic Adenosine Monophosphate (cAMP) Assays. A mixture of forskolin (5 μM final for FPR2 or 10 μM final for FPR1) and IBMX (200 μM final) were added to 384-well Proxiplates (Perkin-Elmer) pre-dotted with test compounds in DMSO (1% final) at final concentrations in the range of 1.7 nM to 100 μM. Chinese Hamster Ovary cells (CHO) overexpressing human FPR1 or human FPR2 receptors were cultured in F-12 (Ham's) medium supplemented with 10% qualified FBS, 250 μg/ml zeocin and 300 μg/ml hygromycin (Life Technologies). Reactions were initiated by adding 2,000 human FPR2 cells per well or 4,000 human FPR1 cells per well in Dulbecco's PBS (with calcium and magnesium) (Life Technologies) supplemented with 0.1% BSA (Perkin-Elmer). The reaction mixtures were incubated for 30 min at room temperature. The level of intracellular cAMP was determined using the HTRF HiRange cAMP assay reagent kit (Cisbio) according to manufacturer's instruction. Solutions of cryptate conjugated anti-cAMP and d2 flurorophore-labelled cAMP were made in a supplied lysis buffer separately. Upon completion of the reaction, the cells were lysed with equal volume of the d2-cAMP solution and anti-cAMP solution. After a 1-h room temperature incubation, time-resolved fluorescence intensity was measured using the Envision (Perkin-Elmer) at 400 nm excitation and dual emission at 590 nm and 665 nm. A calibration curve was constructed with an external cAMP standard at concentrations ranging from 1 μM to 0.1 pM by plotting the fluorescent intensity ratio from 665 nm emission to the intensity from the 590 nm emission against cAMP concentrations. The potency and activity of a compound to inhibit cAMP production was then determined by fitting to a 4-parametric logistic equation from a plot of cAMP level versus compound concentrations.
A general note: Changes in cAMP serve as a functional read-out for many G protein-coupled receptors.

In a further assay the target is human FPR2 receptors (Homo sapiens (Human), UniProt P25090). The assay is described as follows: FPR2 cyclic adenosine monophosphate (cAMP) assay. The class given is cell-based. Particulars: CHO cells overexpressing human FPR2. The protocol: as §1
Sequence of human FPR2 receptors (P25090 whole entry): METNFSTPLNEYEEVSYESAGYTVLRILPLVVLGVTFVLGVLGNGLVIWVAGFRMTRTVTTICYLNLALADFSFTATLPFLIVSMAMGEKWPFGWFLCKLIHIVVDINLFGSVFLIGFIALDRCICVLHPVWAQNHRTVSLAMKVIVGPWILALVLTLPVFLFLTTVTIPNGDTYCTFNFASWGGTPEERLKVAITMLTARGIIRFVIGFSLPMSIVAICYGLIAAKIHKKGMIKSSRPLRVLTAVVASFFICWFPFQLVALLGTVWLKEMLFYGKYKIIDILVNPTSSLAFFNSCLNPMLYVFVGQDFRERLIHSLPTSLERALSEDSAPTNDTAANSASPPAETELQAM
Setting [1] is: forskolin 5 μM, IBMX 200 μM, inhibition of cAMP production, read-out: hFPR2 cAMP2 EC50.
[2] abbreviates: hFPR2 Assay, potency bins, read-out: hFPR2 agonist activity EC50 values.

pEC50: −log10 of the molar value. Read-outs that look alike come from different tables or passages of the source.

Sequence of human FPR1 receptors (P21462 whole entry): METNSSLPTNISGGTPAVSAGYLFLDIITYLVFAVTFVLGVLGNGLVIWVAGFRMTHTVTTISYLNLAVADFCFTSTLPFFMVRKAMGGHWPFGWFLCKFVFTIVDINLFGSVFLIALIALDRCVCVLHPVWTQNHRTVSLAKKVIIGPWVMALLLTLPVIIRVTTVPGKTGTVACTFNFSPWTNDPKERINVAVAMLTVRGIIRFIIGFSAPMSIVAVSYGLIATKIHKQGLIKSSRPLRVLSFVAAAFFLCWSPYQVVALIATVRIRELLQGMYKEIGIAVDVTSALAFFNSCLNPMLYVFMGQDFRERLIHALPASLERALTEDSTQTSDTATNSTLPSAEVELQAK

Broadly, the pEC50 is the negative decadic logarithm of the EC50, by convention in mol/L. Regarding `CS(=O)(=O)NCC1(c2ccc(N3CCC[C@@H](NC(=O)Nc4cnc(Cl)cn4)C3=O)cc2)CCC1` [Example 6], the pEC50 was 7.00 at human FPR1 receptors and 9.15 on human FPR2 receptors (setting [1]).

Regarding `CS(=O)(=O)NCC1(c2ccc(N3CCC[C@@H](NC(=O)Nc4ccc(C(F)(F)F)cc4)C3=O)cc2F)CC1` [Example 18], the pEC50 is 8.70 on human FPR1 receptors and 9.77 at human FPR2 receptors (setting [1]).

For the molecule `CS(=O)(=O)NCC1(c2ccc(N3CCC[C@@H](NC(=O)Nc4cnc(Cl)cn4)C3=O)cc2)CC1` [Example 27], the pEC50 at human FPR1 receptors was 6.89; at human FPR2 receptors (setting [1]) it was 9.04.

`CS(=O)(=O)NCC1(c2ccc(N3CCC[C@H](NC(=O)Nc4ncc(Cl)cc4F)C3=O)cc2)CC1` [Example 41]: the pEC50 is 5.12 at human FPR1 receptors and 6.01 at human FPR2 receptors (setting [1]).

Consider `CS(=O)(=O)NCC1(c2ccc(N3CCC[C@@H](NC(=O)Nc4ccc(C(F)(F)F)cc4)C3=O)cc2)CC1` [Example 42], for which the pEC50 at human FPR1 receptors is 7.48; at human FPR2 receptors (setting [1]), 9.68.

As for `O=C(Nc1ccc(C(F)(F)F)nc1)N[C@@H]1CCCN(c2ccc(C3(CN4CCOCC4)CCC3)cc2)C1=O` [Example 52, (R)-1-(1-(4-(1-(Morpholinomethyl)cyclobutyl)phenyl)-2-oxopiperidin-3-yl)-3-(6-(trifluoromethyl)pyridin-3-yl)urea], the pEC50 at human FPR1 receptors is 6.25; at human FPR2 receptors (setting [1]) it was 7.77.

For `O=C(Nc1ccc(Cl)cn1)N[C@@H]1CCCN(c2ccc(C3(CN4CCOCC4)CC3)cc2)C1=O` [Example 53, (R)-1-(5-chloropyridin-2-yl)-3-(1-(4-(1-(morpholinomethyl)cyclopropyl)phenyl)-2-oxopiperidin-3-yl)urea], the values for the pEC50 at human FPR1 receptors and on human FPR2 receptors (setting [1]) were 6.15 and 7.77, respectively.

`O=C(Nc1ccc(C(F)(F)F)nc1)N[C@H]1CCCN(c2ccc(C3(CN4CCCC4)CCC3)cc2)C1=O` [Example 57, (S)-1-(2-oxo-1-(4-(1-(pyrrolidin-1-ylmethyl)cyclobutyl)phenyl)piperidin-3-yl)-3-(6-(trifluoromethyl)pyridin-3-yl)urea]: the values for the pEC50 at human FPR1 receptors and at human FPR2 receptors (setting [1]) were less than 2.30 and 6.02, respectively.

As for `O=C(Nc1ccc(C(F)(F)F)nc1)N[C@H]1CCCN(c2ccc(C3(CN4CCCC4)CCCC3)cc2)C1=O` [Example 58, (S)-1-(2-oxo-1-(4-(1-(pyrrolidin-1-ylmethyl)cyclopentyl)phenyl)piperidin-3-yl)-3-(6-(trifluoromethyl)pyridin-3-yl)urea], the values for the pEC50 at human FPR1 receptors and at human FPR2 receptors (setting [1]) were 5.47 and 6.00, respectively.

For `O=C(Nc1ccc(C(F)(F)F)nc1)N[C@H]1CCCN(c2ccc(C3(CN4CCOCC4)CCC3)cc2)C1=O` [Example 62, (S)-1-(1-(4-(1-(morpholinomethyl)cyclobutyl)phenyl)-2-oxopipendin-3-yl)-3-(6-(trifluoromethyl)pyridin-3-yl)urea], the pEC50 was 5.96 on human FPR1 receptors and 5.92 on human FPR2 receptors (setting [1]).

Take `O=C(Nc1ccc(C(F)(F)F)cn1)N[C@@H]1CCCN(c2ccc(C3(CN4CCOCC4)CCC3)cc2)C1=O` [Example 63, (R)-1-(1-(4-(1-(morpholinomethyl)cyclobutyl)phenyl)-2-oxopiperidin-3-yl)-3-(5-(trifluoromethyl)pyridin-2-yl)urea]: the pEC50 on human FPR2 receptors (setting [2]) is 7.00 to 8.00.

Turning to `O=C(Nc1ccc(C(F)(F)F)nc1)N[C@@H]1CCCN(c2ccc(C3(CN4CCOCC4)CC3)cc2)C1=O` [Example 64, (R)-1-(1-(4-(1-(morpholinomethyl)cyclopropyl)phenyl)-2-oxopiperidin-3-yl)-3-(6-(trifluoromethyl)pyridin-3-yl)urea], the pEC50 at human FPR2 receptors (setting [2]) is 7.00 to 8.00.

`O=C(Nc1ccc(C(F)(F)F)cn1)N[C@@H]1CCCN(c2ccc(C3(CN4CCOCC4)CCCC3)cc2)C1=O` [Example 65, (R)-1-(1-(4-(1-(morpholinomethyl)cyclopentyl)phenyl)-2-oxopiperidin-3-yl)-3-(5-(trifluoromethyl)pyridin-2-yl)urea]: the pEC50 at human FPR2 receptors (setting [2]) was 5.90 to 7.00.

For `O=C(Nc1ccc(C(F)(F)F)nc1)N[C@@H]1CCCN(c2ccc(C3(CN4CCCC4)CC3)cc2)C1=O` [Example 66, (R)-1-(2-oxo-1-(4-(1-(pyrrolidin-1-ylmethyl)cyclopropyl)phenyl)piperidin-3-yl)-3-(6-(trifluoromethyl)pyridin-3-yl)urea], the pEC50 on human FPR2 receptors (setting [2]) was 5.90 to 7.00.

With `CN(C)CC1(c2ccc(N3CCC[C@@H](NC(=O)Nc4ccc(C(F)(F)F)nc4)C3=O)cc2)CC1` [Example 67, (R)-1-(1-(4-(1-((dimethylamino)methyl)cyclopropyl)phenyl)-2-oxopiperidin-3-yl)-3-(6-(trifluoromethyl)pyridin-3-yl)urea], the pEC50 on human FPR2 receptors (setting [2]) is 5.90 to 7.00.

With `CS(=O)(=O)NCC1(c2ccc(N3C[C@H](O)C[C@@H](NC(=O)Nc4ncc(C(F)(F)F)cc4F)C3=O)cc2)CC1` [Example 68, N-((1-(4-((3R,5R)-3-(3-(3-Fluoro-5-(trifluoromethyl)pyridin-2-yl)ureido)-5-hydroxy-2-oxopiperidin-1-yl)phenyl)cyclopropyl)methyl)methanesulfonamide], the pEC50 at human FPR2 receptors (setting [2]) was 7.00 to 8.00.

Regarding `CS(=O)(=O)NCC1(c2ccc(N3C[C@@H](O)C[C@H](NC(=O)Nc4ncc(C(F)(F)F)cc4F)C3=O)cc2)CC1` [Example 69, N-((1-(4-((3S,5S)-3-(3-(3-fluoro-5-(trifluoromethyl)pyridin-2-yl)ureido)-5-hydroxy-2-oxopiperidin-1-yl)phenyl)cyclopropyl)methyl)methanesulfonamide], the values for the pEC50 on human FPR1 receptors and at human FPR2 receptors (setting [1]) were 6.18 and 7.72, respectively.

Take `CS(=O)(=O)NCC1(c2ccc(N3C[C@H](O)C[C@@H](NC(=O)Nc4ncc(Cl)cc4F)C3=O)cc2)CC1` [Example 70]: the pEC50 on human FPR2 receptors (setting [2]) was 7.00 to 8.00.

Take `CS(=O)(=O)NCC1(c2ccc(N3C[C@@H](O)C[C@@H](NC(=O)Nc4ncc(Cl)cc4F)C3=O)cc2)CC1` [Example 71]: the pEC50 at human FPR1 receptors was 5.68; on human FPR2 receptors (setting [1]), 7.77.

For `CC(=O)NC(C)C1(c2ccc(N3CCC[C@@H](NC(=O)Nc4ccc(C(F)(F)F)nc4)C3=O)cc2)CC1` (some centres unmarked) [Example 73], the pEC50 at human FPR1 receptors was 3.48; on human FPR2 receptors (setting [1]) it was 4.08.

Take `O=C(Nc1ccc(Cl)cc1F)N[C@@H]1CCCN(c2ccc(C3CCC(O)C3)cc2)C1=O` (stereo partly drawn) [Example 77, 1-(4-Chloro-2-fluorophenyl)-3-((3R)-1-(4-(3-hydroxycyclopentyl)phenyl)-2-oxopiperidin-3-yl)urea]: the pEC50 is 5.44 on human FPR1 receptors and 5.49 on human FPR2 receptors (setting [1]).

For the origin of these results see patent publication US11124494B2, “Aryl heterocyclic piperidinone formyl peptide 2 receptor and formyl peptide 1 receptor agonists” (Bristol-Myers Squibb Company, priority 2017, dated 2021).
